Measured values taken from patent US20130316349A1, “N-METHYLPURINE DNA GLYCOSYLASE AND POLYMERASE BETA AS BIOMARKERS FOR ALKYLATOR CHEMOTHERAPY POTENTIATION” (University of Pittsburgh - Of the Commonwealth System of …, priority 2010, published 2013).
Entries after “also recorded” stand apart in the source; their conditions may differ.

What was measured:
T98G/MPG/Polβ KD cells [1] = test: Long-term cell survival assay (10 days)
Protocol: (§1) Results were calculated from the average of three or four separate experiments and are reported as the percentage of treated cells relative to the cells without treatment (% control).

T98G cells = test: Long-term cell survival assay (10 days); assay type: cell-based; settings: 50 and 100 μM TMZ
Protocol: as §1

T98G/MPG cells = test: Long-term cell survival assay (10 days); settings: for ABT-888-induced potentiation of TMZ: T98G/MPG vs T98G, 50 and 100 μM TMZ, p<0.05 and p<0.01
Protocol: as §1

[2] = system: LN428/MPG/Flag-Polβ-WT cells; test: Short-term cell survival assay (48 hours MTS assay); assay type: cell-based; settings: WT Polβ over-expressed in LN428/MPG
Protocol: as §1

LN428 cells = test: as above; assay type: cell-based; settings: MX 60 mM 30 min, then TMZ with MX 30 mM 48 hours
Protocol: as §1

[3] = system: LN428/MPG/Flag-Pol β-K72A cells; test: as above; assay type: cell-based; settings: 5′ dRP lyase null mutant Polβ (K72A) over-expressed in LN428/MPG
Protocol: as §1

[4] = system: LN428/MPG cells (MPG over-expressing); test: as above; assay type: cell-based; settings: MX 60 mM 30 min, then TMZ with MX 30 mM 48 hours; LN428/MPG vs LN428
Protocol: as §1

[5] = system: LN428/MPG/Flag-APE1 cells; test: as above; assay type: cell-based; settings: APE1 over-expressed in LN428/MPG
Protocol: as §1

[6] = system: LN428 cells over-expressing mutant MPG (N169D); test: as above; assay type: cell-based; settings: glycosylase dead mutant MPG (N169D) over-expressed in LN428
Protocol: as §1

PARP = settings: PJ34 at 2 μM; cited from earlier work
LN428/MGMT/MPG cells = test: Long-term cell survival assay (10 days); assay type: cell-based; settings: pre- (4 μM) and co-treatment with PJ34 (2 μM); LN428/MGMT/MPG vs LN428/MGMT
Protocol: as §1

LN428/MGMT cells = test: Long-term cell survival assay (10 days); assay type: cell-based; settings: pre- (4 μM) and co-treatment with PJ34 (2 μM)
Protocol: as §1

T98G/MPG/Polβ KD cells [7] = system: T98G/MPG/Polβ KD cells
Protocol: as §1

[8] = system: degradation of PAR (PARG); test: Immunoblot for PAR after TMZ exposure in LN428/MPG cells; assay type: cell-based; settings: 1.5 mM TMZ
Protocol: Twenty microgram of protein was loaded on a precast 4-20% NuPAGE™ Tris-Glycine gel (Invitrogen, Carlsbad, Calif.). For whole cell extracts used in probing Poly(ADP-ribose) (PAR), 3×10^6 cells were seeded into a 100 mm cell culture dish 24 hours before drug treatment. Cells were then treated with TMZ (1.5 mM) or DMSO (control) for different periods of time. After treatment, cells were washed twice with cold PBS, collected and lysed in 400 μL of 2×Laemmli buffer (2% SDS, 20% Glycerol, 62.5 mM Tris-HCl pH6.8, 0.01% Bromophenol Blue). Samples were boiled for 8 minutes and extracts from approximately 1.5×10^5 cells were loaded each lane on a 4-12% pre-cast NuPAGE™ Tris-Glycine gel (Invitrogen, Carlsbad, Calif.) for immunoblot analysis. The following primary antibodies were used in immunoblot assays: anti-human MPG (Mab; clone 506-3D) (Trivedi et al., Mol. Pharmacol, 2008); anti-Polβ (Mab clone 61; Thermo Fisher Scientific); anti-APE1 (EMD Biosciences); anti-PCNA (Santa Cruz); anti-poly(ADP-ribose) (PAR) (Clone 10H); anti-MGMT (Novus, Littleton, Colo.).

PARG mRNA = test: qRT-PCR of PARG mRNA in LN428/MPG cells stably expressing shRNA; assay type: cell-based; settings: LN428/MPG cells stably expressing each shRNA
Protocol: Human WT MPG, mutant MPG (N169D), WT Flag Polβ and Flag Pol β (K72A) expressing cell lines were developed by transfecting cells with corresponding plasmids using FuGene™ 6 Transfection Reagent (Roche, Indianapolis, Ind.) according to the manufacturer's protocol. Transfected cells were cultured in G418 and/or Puromycin for 2 weeks and individual clones stably expressing human MPG or Pol β were selected. Lentiviral particles were generated by co-transfection of 4 plasmids, pLKO.1-puro-TurboGFP (control, expresses GFP) or pCMV-tGFP-PARG (PARG shRNA, co-expresses PARG shRNA and GFP) together with pMD2.g(VSVG), pVSV-REV and PMDLg/pRRE, into 293-FT cells (Zufferey et al., J. Virol., 72:9873-9880, 1998; Zufferey et al., Nat. Biotechnol., 15:871-875, 1997) using FuGene™ 6 Transfection Reagent (Roche, Indianapolis, Ind.), as described previously (Tang et al., Mol. Cancer Res. 8(1):67-79, 2010). […] Cells expressing copGFP only or both copGFP and PARG specific shRNA were isolated by fluorescence activated cell sorting (FACS).
Expression of MPG, Polβ and PARP1 in the cell lines was measured by quantitative RT-PCR using an Applied Biosystems StepOnePlus™ system as described previously (Tang et al., Mol Cancer Res 8:67-79, 2010). […] Each sample was analyzed in triplicate and the results are an average of all three analyses. […]

With `C[C@]1(c2nc3c(C(N)=O)cccc3[nH]2)CCCN1` [ABT-888] the “cells killed by ABT-888 treatment alone” value (T98G/MPG/Polβ KD cells [1]; T98G/MPG/Polβ KD cells, no TMZ) was “about 70%”, the “ABT-888-induced potentiation of TMZ (cytotoxicity of TMZ and ABT-888 vs TMZ alone)” value (T98G/MPG/Polβ KD cells [1]; T98G/MPG/Polβ KD, 25 and 50 μM TMZ, p<0.01) was “significantly increased ABT-888-induced potentiation of TMZ; also recorded: significantly increased cytotoxicity compared to TMZ treatment alone” and the “ABT-888-induced potentiation of TMZ” value (T98G cells) was “sensitized T98G cells to TMZ”. For the same compound, the “cells killed by ABT-888 treatment alone” value (T98G/MPG cells; T98G/MPG cells, no TMZ) was ~30%, the “ABT-888-induced potentiation of TMZ” value (T98G/MPG cells) was “significantly increased the potentiation induced by ABT-888” and the “ABT-888-induced potentiation of TMZ” value (T98G/MPG cells; listed as A8T-888) was “significantly increased A8T-888-induced potentiation of TMZ”.
With `CON` [MX, Methoxyamine] the “MX-induced potentiation of TMZ” value [2] was “dramatically reduced the potentiation induced by MX”, the “MX-induced potentiation of TMZ” value (LN428 cells) was “sensitized both cell lines to TMZ” and the “MX-induced potentiation of TMZ” value [3] was “did not affect MX-induced potentiation of TMZ”. For the same compound, the “MX-induced potentiation of TMZ” value [4] was “dramatically increases MX-induced potentiation of TMZ; also recorded: much higher in the MPG over-expressing cells”, the “MX-induced potentiation of TMZ” value [5] was “did not alter the potentiation of TMZ induced by MX” and the “MX-induced potentiation of TMZ” value [6] was “did not sensitize LN428 cells to a combined treatment of MX and TMZ”.
For `CN(C)CC(=O)Nc1ccc2[nH]c(=O)c3ccccc3c2c1` [PJ34], the “level of PARP activation following exposure to TMZ” value (PARP) is given as “significantly reduced the level of PARP activation”, the “PJ34-induced potentiation of TMZ” value (LN428/MGMT/MPG cells) is given as “substantially increased PJ34-induced potentiation of TMZ; also recorded: much higher in the MPG over expressing cells” and the “PJ34-induced potentiation of TMZ” value (LN428/MGMT cells) is given as “sensitized cells to TMZ”.
For `Cn1nnc2c(C(N)=O)ncn2c1=O` [TMZ, 3-methyl-2-oxo-1,3,4,5,8-pentazabicyclo[4.3.0]nona-4,6,8-triene-7-carbooxamide], the IC50 (T98G/MPG/Polβ KD cells [7]) was < 25 µM.
For “PARG shRNA #2: MISSION TRC shRNA targeting PARG, SEQ ID NO: 10 (CCGGCGATTGCATGTCACTTACGAACTCGAGTTCGTAAGTGACATGCAATCGTTTTTG)”, the “degradation of PAR following exposure to TMZ” value [8] was “greatly decreased the degradation of PAR” and the “level of PARG mRNA (rank among five shRNA constructs)” value (PARG mRNA) was “second lowest”.
In the case of “PARG shRNA #4: MISSION TRC shRNA targeting PARG, SEQ ID NO: 12; used for PARG KD (CCGGGCTGAGCGAGATGTGGTTTATCTCGAGATAAACCACATCTCGCTCAGCTTTTTG)”, the “degradation of PAR following exposure to TMZ” value [8] is reported as “greatly decreased the degradation of PAR” and the “level of PARG mRNA (rank among five shRNA constructs)” value (PARG mRNA) is reported as “lowest”.
